Data from ChEMBL document CHEMBL5236634, “Membrane-Targeting Neolignan-Antimicrobial Peptide Mimic Conjugates to Combat Methicillin-Resistant Staphylococcus aureus (MRSA) Infections” (J Med Chem, 2022).
Converted amounts (≈) assume the structure as drawn. The source made the active and inactive calls. The calls are words filed in the database; no cut-off is given here.

Experiments:
Cell membrane [1] = experiment: Induction of membrane depolarization in methicillin-resistant Staphylococcus aureus 15 assessed as increase in fluorescence intensity at 32 ug/ml by DiSC3-5 dye based fluorescence method; assay type: subcellular; details: dose 32.0 µg/ml
Cell membrane [2] = experiment: Disruption of membrane integrity in methicillin-resistant Staphylococcus aureus 15 assessed as increase in fluorescence intensity at 32 ug/ml measured immediately by Sytox green based fluorescence method; assay type: subcellular; details: dose 32.0 µg/ml
Staphylococcus aureus [3] = experiment: Inhibition of biofilm formation in Staphylococcus aureus ATCC 29213 at 64 ug/ml incubated for 24 hrs by crystalline violet staining based analysis; assay type: functional; details: dose 64.0 µg/ml
Staphylococcus aureus [4] = experiment: Bactericidal activity against methicillin-resistant Staphylococcus aureus 15 at 4 to 8 times MIC measured at 24 hrs by time kill assay; assay type: functional, organism-based
Staphylococcus aureus [5] = experiment: Inhibition of biofilm formation in methicillin-resistant Staphylococcus aureus 15 assessed as destruction of formed biofilm at 128 ug/ml incubated for 24 hrs by crystal violet staining based analysis relative to control; assay type: functional
Enterococcus faecalis = experiment: Antibacterial activity against Enterococcus faecalis ATCC 29212 assessed as inhibition of bacterial growth incubated for 16 to 20 hrs by CLSI based microdilution method; assay type: functional; details: time 16-20 hrs
Micrococcus luteus = experiment: Antibacterial activity against Micrococcus luteus assessed as inhibition of bacterial growth incubated for 16 to 20 hrs by CLSI based microdilution method; assay type: functional; details: time 16-20 hrs
Staphylococcus aureus [6] = experiment: Inhibition of biofilm formation in methicillin-resistant Staphylococcus aureus 15 at 64 ug/ml incubated for 24 hrs by crystalline violet staining based analysis; assay type: functional; details: dose 64.0 µg/ml
Staphylococcus aureus [7] = experiment: Induction of drug resistance in Staphylococcus aureus ATCC 29213 assessed as increase in MIC at 0.5 times MIC measured after 2 days by CLSI based microdilution method; assay type: functional, organism-based; details: time 2.0 day
Staphylococcus aureus [8] = experiment: Antibacterial activity against Staphylococcus aureus ATCC 29213 assessed as inhibition of bacterial growth incubated for 16 to 20 hrs by CLSI based microdilution method; assay type: functional; details: time 16-20 hrs
Salmonella enterica [9] = experiment: Antibacterial activity against Salmonella enterica 8389 assessed as inhibition of bacterial growth incubated for 16 to 20 hrs by CLSI based microdilution method; assay type: functional; details: time 16-20 hrs
[10] = Hemolytic activity in sheep RBC incubated for 1 hr by absorbance based analysis; assay type: toxicity, cell-based, Ovis aries, Erythrocyte; details: sheep red blood cells
Escherichia coli = experiment: Antibacterial activity against Escherichia coli ATCC 25922 assessed as inhibition of bacterial growth incubated for 16 to 20 hrs by CLSI based microdilution method; assay type: functional; details: time 16-20 hrs
Salmonella enterica [11] = experiment: Antibacterial activity against Salmonella enterica H9812 assessed as inhibition of bacterial growth incubated for 16 to 20 hrs by CLSI based microdilution method; assay type: functional; details: time 16-20 hrs
[12] = Selectivity index, ratio of HC50 for hemolytic activity in sheep RBC to MIC for antibacterial activity against Staphylococcus aureus ATCC 29213; assay type: toxicity; details: sheep red blood cells

Row | Compound | Activity (Cell membrane [1]) | Activity (Cell membrane [2]) | inhibition (Staphylococcus aureus [3]) | Activity (Staphylococcus aureus [4]) | inhibition at 128 µg/mL (Staphylococcus aureus [5]) | MIC (Enterococcus faecalis) | MIC (Micrococcus luteus) | inhibition (Staphylococcus aureus [6]) | Activity (Staphylococcus aureus [7]) | MIC (Staphylococcus aureus [8]) | MIC (Salmonella enterica [9]) | HC50 at 1 h [10] | MIC (Escherichia coli) | MIC (Salmonella enterica [11]) | selectivity ratio [12]
1 | CC[C@H](C)[C@H](NC(=O)CN)C(=O)NCC(=O)N[C@@H](C)C(=O)N[C@H](C(=O)N[C@@H](CC(C)C)C(=O)N[C@@H](CCCCN)C(=O)N[C@H](C(=O)N[C@@H](CC(C)C)C(=O)N[C@H](C(=O)N[C@H](C(=O)NCC(=O)N[C@@H](CC(C)C)C(=O)N1CCC[C@H]1C(=O)N[C@@H](C)C(=O)N[C@@H](CC(C)C)C(=O)N[C@H](C(=O)N[C@@H](CO)C(=O)N[C@@H](Cc1c[nH]c2ccccc12)C(=O)N[C@H](C(=O)N[C@@H](CCCCN)C(=O)N[C@@H](CCCNC(=N)N)C(=O)N[C@@H](CCCCN)C(=O)N[C@@H](CCCNC(=N)N)C(=O)N[C@@H](CCC(N)=O)C(=O)N[C@@H](CCC(N)=O)C(N)=O)[C@@H](C)CC)[C@@H](C)CC)[C@@H](C)O)[C@@H](C)O)C(C)C)C(C)C | Active | Active |  |  |  |  |  |  |  |  |  |  |  |  | 
2 | CN[C@H](CC(C)C)C(=O)N[C@H]1C(=O)N[C@@H](CC(N)=O)C(=O)N[C@H]2C(=O)N[C@H]3C(=O)N[C@H](C(=O)N[C@H](C(=O)O)c4cc(O)cc(O)c4-c4cc3ccc4O)[C@H](O)c3ccc(c(Cl)c3)Oc3cc2cc(c3O[C@@H]2O[C@H](CO)[C@@H](O)[C@H](O)[C@H]2O[C@H]2C[C@](C)(N)[C@H](O)[C@H](C)O2)Oc2ccc(cc2Cl)[C@H]1O [VANCOMYCIN] |  |  | inactive | inactive | 60% | 1 µg/mL (≈ 0.69 µM) | 2 µg/mL (≈ 1.38 µM) | inactive |  |  |  |  |  |  | 
3 | CCn1cc(C(=O)O)c(=O)c2cc(F)c(N3CCNCC3)cc21 |  |  |  |  |  |  |  |  | Active |  |  |  |  |  | 
4 | Br.C=CCc1cccc(Oc2ccc(C(=O)CC)cc2)c1OCCCSC(=N)N |  |  |  |  |  | 64 µg/mL | 32 µg/mL |  |  | 16 µg/mL | 64 µg/mL | 894 µg/mL | 32 µg/mL | 64 µg/mL | 55.8
5 | C=CCc1cccc(Oc2ccc(C(=O)CC)cc2)c1OCC[N+](C)(C)CC(=O)NCCCC.[Br-] |  |  |  |  |  | 64 µg/mL | 64 µg/mL |  |  | 32 µg/mL | 128 µg/mL | 1150 µg/mL | 64 µg/mL | 64 µg/mL | 35.9
6 | C=CCc1cccc(Oc2ccc(C(=O)CC)cc2)c1OCCCC[N+](C)(C)CC(=O)NCCCC.[Br-] |  |  |  |  |  | 16 µg/mL | 16 µg/mL |  |  | 8 µg/mL | 32 µg/mL | 1110 µg/mL | 64 µg/mL | 128 µg/mL | 138
